Experimental data: ChEMBL document CHEMBL4118091, “N-Acylbenzenesulfonamide Dihydro-1,3,4-oxadiazole Hybrids: Seeking Selectivity toward Carbonic Anhydrase Isoforms” (ACS Med Chem Lett, 2017)

Tests used:
Carbonic anhydrase 9 = Carbonic anhydrase 9 (Homo sapiens, UniProt Q16790); experiment: Inhibition of recombinant human carbonic anhydrase 9 assessed as reduction in CO2 hydration pretreated for 15 mins followed by CO2 addition measured for 10 to 100 sec by Line-Weaver Burk plot analysis
Carbonic anhydrase 1 = Carbonic anhydrase 1 (Homo sapiens, UniProt P00915); experiment: Inhibition of recombinant human carbonic anhydrase 1 assessed as reduction in CO2 hydration pretreated for 15 mins followed by CO2 addition measured for 10 to 100 sec by Line-Weaver Burk plot analysis
Carbonic anhydrase 1, sequence (P00915 whole entry): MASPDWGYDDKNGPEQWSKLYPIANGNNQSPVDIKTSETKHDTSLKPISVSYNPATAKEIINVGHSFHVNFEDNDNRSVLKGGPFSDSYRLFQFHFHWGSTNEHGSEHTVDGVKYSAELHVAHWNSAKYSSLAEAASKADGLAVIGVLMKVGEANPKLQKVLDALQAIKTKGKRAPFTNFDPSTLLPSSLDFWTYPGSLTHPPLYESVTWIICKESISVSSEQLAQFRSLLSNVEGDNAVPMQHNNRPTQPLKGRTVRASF

Row | SMILES | Ki (Carbonic anhydrase 9) | Ki (Carbonic anhydrase 1)
1 | CC(=O)NS(=O)(=O)c1ccc(C2=NN(C(C)=O)C(c3ccc(F)cc3F)O2)cc1 (centres undefined) | 373 nM | 
2 | COc1ccc(C2OC(c3ccc(S(=O)(=O)NC(C)=O)cc3)=NN2C(C)=O)cc1 (centres undefined) | 143 nM | > 10000 nM
3 | COc1ccccc1C1OC(c2ccc(S(=O)(=O)NC(C)=O)cc2)=NN1C(C)=O (centres undefined) | 378 nM | 
4 | COc1cccc(C2OC(c3ccc(S(=O)(=O)NC(C)=O)cc3)=NN2C(C)=O)c1 (centres undefined) | 430 nM | 
5 | CC(=O)NS(=O)(=O)c1ccc(C2=NN(C(C)=O)C(c3ccc(Cl)cc3)O2)cc1 (centres undefined) | 502 nM | 
6 | CC(=O)NS(=O)(=O)c1ccc(C2=NN(C(C)=O)C(c3ccc(C(F)(F)F)cc3)O2)cc1 (centres undefined) | 468 nM | > 10000 nM
7 | CC(=O)NS(=O)(=O)c1ccc(C2=NN(C(C)=O)C(c3ccccc3C)O2)cc1 (centres undefined) | 489 nM | 
8 | CC(=O)NS(=O)(=O)c1ccc(C2=NN(C(C)=O)C(c3ccc(C)cc3)O2)cc1 (centres undefined) | 502 nM | 
9 | CC(=O)NS(=O)(=O)c1ccc(C2=NN(C(C)=O)C(c3ccccc3[N+](=O)[O-])O2)cc1 (centres undefined) | 159 nM | > 10000 nM

Stronger by Ki (Carbonic anhydrase 9), values ahead:

Row | Ki (Carbonic anhydrase 9) | Ki (Carbonic anhydrase 1) | SMILES
10 | 43.6 nM |  | CC(=O)NS(=O)(=O)c1ccc(C2=NN(C(C)=O)C(c3ccc(F)cc3)O2)cc1 (centres undefined)
11 | 44.3 nM | > 10000 nM | CC(=O)NS(=O)(=O)c1ccc(C2=NN(C(C)=O)C(c3cccc([N+](=O)[O-])c3)O2)cc1 (centres undefined)
12 | 33.1 nM |  | CC(=O)NS(=O)(=O)c1ccc(C2=NN(C(C)=O)C(c3ccc([N+](=O)[O-])cc3)O2)cc1 (centres undefined)
13 | 25 nM |  | CC(=O)NS(=O)(=O)c1ccc(C2=NN(C(C)=O)C(c3ccc(Cl)cc3Cl)O2)cc1 (racemic)
14 | 26.9 nM |  | CC(=O)NS(=O)(=O)c1ccc(C2=NN(C(C)=O)C(c3ccc(Cl)cc3Cl)O2)cc1 (single isomer, unassigned; (+))
15 | 24.2 nM |  | CC(=O)NS(=O)(=O)c1ccc(C2=NN(C(C)=O)C(c3ccc(Cl)cc3Cl)O2)cc1 (single isomer, unassigned; (-))
